Values of other authors as cited in patent publication US20110184024A1, “Pharmaceutical Composition Containing Esomeprazole” (CTC BIO, INC., priority 2007, published 2011).

Settings: stored for two months at 25° C./60% RH

SMILES: COc1ccc2nc([S@@+]([O-])Cc3ncc(C)c(OC)c3C)[nH]c2c1 [esomeprazole free base, (S)-5-methoxy-2-[(4-methoxy-3,5-dimethylpyridin-2-yl)methylsulfinyl]-3H-benzoimidazole]
- total impurities after storage: about 1%
